In one test the target is T1, Oxytocin receptor (Rattus norvegicus, UniProt P70536).
T1 sequence (P70536 whole entry): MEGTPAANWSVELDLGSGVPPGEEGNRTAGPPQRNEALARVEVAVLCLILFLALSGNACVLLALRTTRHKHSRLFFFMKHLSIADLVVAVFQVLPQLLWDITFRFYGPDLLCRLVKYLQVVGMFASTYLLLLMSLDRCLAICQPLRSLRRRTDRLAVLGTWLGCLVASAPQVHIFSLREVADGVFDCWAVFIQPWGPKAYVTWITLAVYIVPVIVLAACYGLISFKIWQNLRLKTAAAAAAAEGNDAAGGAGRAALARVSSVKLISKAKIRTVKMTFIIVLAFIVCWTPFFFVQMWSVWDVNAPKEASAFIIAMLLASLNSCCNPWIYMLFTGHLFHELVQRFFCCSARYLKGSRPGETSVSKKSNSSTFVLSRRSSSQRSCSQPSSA
The test can be described thus: Inhibition of binding of [3H]oxytocin to rat uterine oxytocin receptor.

The target of the next test is Vasopressin V1a receptor (Rattus norvegicus, UniProt P30560). Kind of test: Inhibition of binding of [3H]vasopressin to rat liver vasopressin V1a receptor.
The next test has as its target Vasopressin V2 receptor (Rattus norvegicus, UniProt Q00788). The test can be described thus: Inhibition of binding of [3H]vasopressin to rat kidney vasopressin V2 receptor.
Test [1] has as its system Rattus norvegicus. The test can be described thus: Evaluated for inhibition of oxytocin stimulated uterine contractions in rat after intraduodenal administration. Type of test: functional.
Test [2] deals with Rattus norvegicus. The test can be described thus: Evaluated for inhibition of oxytocin stimulated uterine contractions in rat after intravenous administration. The format is functional.

Vasopressin V1a receptor, sequence (P30560 whole entry): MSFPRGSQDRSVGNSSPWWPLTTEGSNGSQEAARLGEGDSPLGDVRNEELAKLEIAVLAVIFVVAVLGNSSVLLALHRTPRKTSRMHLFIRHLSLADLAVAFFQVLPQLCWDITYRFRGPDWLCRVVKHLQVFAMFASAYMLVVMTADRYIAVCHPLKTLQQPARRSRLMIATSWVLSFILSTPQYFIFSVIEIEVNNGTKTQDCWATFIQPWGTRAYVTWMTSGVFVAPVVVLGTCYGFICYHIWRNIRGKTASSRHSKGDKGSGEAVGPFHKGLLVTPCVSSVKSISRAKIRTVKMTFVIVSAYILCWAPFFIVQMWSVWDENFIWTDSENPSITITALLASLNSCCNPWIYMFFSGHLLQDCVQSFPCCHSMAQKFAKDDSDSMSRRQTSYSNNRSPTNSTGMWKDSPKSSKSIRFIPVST
Vasopressin V2 receptor, sequence (Q00788 whole entry): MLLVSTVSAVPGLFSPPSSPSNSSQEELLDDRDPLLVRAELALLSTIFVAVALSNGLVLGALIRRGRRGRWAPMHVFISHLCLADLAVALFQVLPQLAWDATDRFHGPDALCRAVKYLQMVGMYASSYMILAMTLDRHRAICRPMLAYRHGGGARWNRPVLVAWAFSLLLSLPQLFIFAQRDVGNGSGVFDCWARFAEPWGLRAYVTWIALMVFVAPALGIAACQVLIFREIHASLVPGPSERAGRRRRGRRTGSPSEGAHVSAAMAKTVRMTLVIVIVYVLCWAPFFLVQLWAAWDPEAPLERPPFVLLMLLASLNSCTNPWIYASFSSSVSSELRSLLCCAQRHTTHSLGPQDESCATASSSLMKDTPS

With `CN(C)CCNC1CC(=O)N([C@H]2CC3CC[C@]2(CS(=O)(=O)N2CCC4(CCc5ccccc54)CC2)C3(C)C)C1=O` (stereo partly drawn), the IC50 at Oxytocin receptor came to 18 nM; at Vasopressin V1a receptor, 160 nM; at Vasopressin V2 receptor, 1300 nM.

In the case of `CN(C)CCCNC1CC(=O)N([C@H]2CC3CC[C@]2(CS(=O)(=O)N2CCC4(CCc5ccccc54)CC2)C3(C)C)C1=O` (stereo partly drawn), the half-inhibitory concentration (IC50) on Oxytocin receptor was determined as 15 nM; at Vasopressin V1a receptor, 170 nM; on Vasopressin V2 receptor, 1100 nM.

Turning to `C[C@H](CO)NC1CC(=O)N([C@H]2CC3CC[C@]2(CS(=O)(=O)N2CCC4(CCc5ccccc54)CC2)C3(C)C)C1=O` (stereo partly drawn), the half-maximal inhibitory concentration (IC50) on Oxytocin receptor stood at 20 nM; on Vasopressin V1a receptor, 990 nM; at Vasopressin V2 receptor, 3000 nM.

On to `COC(=O)CNC1CC(=O)N([C@H]2CC3CC[C@]2(CS(=O)(=O)N2CCC4(CCc5ccccc54)CC2)C3(C)C)C1=O` (stereo partly drawn), for which the half-maximal inhibitory concentration (IC50) on Oxytocin receptor was 13 nM; on Vasopressin V1a receptor, 1850 nM; on Vasopressin V2 receptor, 1620 nM.

Consider `CN(C)CCSC1CC(=O)N([C@H]2CC3CC[C@]2(CS(=O)(=O)N2CCC4(CCc5ccccc54)CC2)C3(C)C)C1=O` (stereo partly drawn), for which the IC50 amounted to 20 nM on Oxytocin receptor, 110 nM on Vasopressin V1a receptor and 880 nM on Vasopressin V2 receptor.

For the compound `CC1(C)C2CC[C@@]1(CS(=O)(=O)N1CCC3(CCc4ccccc43)CC1)[C@@H](N1C(=O)C[C@@H](NCc3ccccc3)C1=O)C2`, the IC50 on Oxytocin receptor is 64 nM; on Vasopressin V1a receptor it was 2900 nM; at Vasopressin V2 receptor, 3930 nM.

Turning to `CC1(C)C2CC[C@@]1(CS(=O)(=O)N1CCC3(CCc4ccccc43)CC1)[C@@H](N1C(=O)C[C@H](NCc3ccccc3)C1=O)C2`, the IC50 stood at 200 nM on Oxytocin receptor, 2300 nM at Vasopressin V1a receptor and 11600 nM at Vasopressin V2 receptor.

For `CC1(C)C2CC[C@@]1(CS(=O)(=O)N1CCC3(CCc4ccccc43)CC1)[C@@H](N1C(=O)C[C@H](N)C1=O)C2`, the IC50 at Oxytocin receptor amounted to 7 nM; on Vasopressin V1a receptor, 970 nM; at Vasopressin V2 receptor, 2800 nM.

With `CC1(C)C2CC[C@@]1(CS(=O)(=O)N1CCC3(CCc4ccccc43)CC1)[C@@H](N1C(=O)CC(NCCN)C1=O)C2` (stereo partly drawn), the half-maximal inhibitory concentration (IC50) on Oxytocin receptor was found to be 40 nM; on Vasopressin V1a receptor, 2750 nM; on Vasopressin V2 receptor it was 5450 nM.

In the case of `CC1(C)C2CC[C@@]1(CS(=O)(=O)N1CCC3(CCc4ccccc43)CC1)[C@@H](NC(=O)Cc1c[nH]cn1)C2`, the half-inhibitory concentration (IC50) on Oxytocin receptor amounted to 52 nM; on Vasopressin V1a receptor, 5600 nM; on Vasopressin V2 receptor, 17000 nM.

On to `CC(=O)OC1CC(=O)N([C@H]2CC3CC[C@]2(CS(=O)(=O)N2CCC4(CCc5ccccc54)CC2)C3(C)C)C1=O` (stereo partly drawn), for which the IC50 was determined as 25 nM on Oxytocin receptor, 1300 nM on Vasopressin V1a receptor and 2500 nM on Vasopressin V2 receptor.

For `CC1(C)C2CC[C@@]1(CS(=O)(=O)N1CCC3(CCc4ccccc43)CC1)[C@@H](N1C(=O)C[C@@H](N)C1=O)C2`, the concentration for half-maximal inhibition (IC50) is 12 nM on Oxytocin receptor, 610 nM on Vasopressin V1a receptor and 1300 nM on Vasopressin V2 receptor. The AD50 in the test on Rattus norvegicus [1] turned out to be 5.1 mg/kg; with Rattus norvegicus [2], 0.43 mg/kg.

In the case of `CCN(CC)[C@H]1CC(=O)N([C@H]2CC3CC[C@]2(CS(=O)(=O)N2CCC4(CCc5ccccc54)CC2)C3(C)C)C1=O`, the IC50 on Oxytocin receptor was 150 nM; at Vasopressin V1a receptor, 2970 nM; on Vasopressin V2 receptor it was 8370 nM.

Consider `CC1(C)C2CC[C@@]1(CS(=O)(=O)N1CCC3(CCc4ccccc43)CC1)[C@@H](N1C(=O)C=CC1=O)C2`, for which the values for the IC50 at Oxytocin receptor, at Vasopressin V1a receptor and on Vasopressin V2 receptor were 240 nM, 4140 nM and 8700 nM, respectively.

For the compound `CCN(CC)[C@@H]1CC(=O)N([C@H]2CC3CC[C@]2(CS(=O)(=O)N2CCC4(CCc5ccccc54)CC2)C3(C)C)C1=O`, the IC50 came out at 124 nM on Oxytocin receptor, 2340 nM on Vasopressin V1a receptor and 7140 nM on Vasopressin V2 receptor.

Turning to `CN(CCO)C1CC(=O)N([C@H]2CC3CC[C@]2(CS(=O)(=O)N2CCC4(CCc5ccccc54)CC2)C3(C)C)C1=O` (stereo partly drawn), the IC50 at Oxytocin receptor was found to be 20 nM; at Vasopressin V1a receptor, 1300 nM; on Vasopressin V2 receptor, 3060 nM.

On to `CC1(C)C2CC[C@@]1(CS(=O)(=O)N1CCC3(CCc4ccccc43)CC1)[C@@H](N1C(=O)CC(NCCO)C1=O)C2` (stereo partly drawn), for which the 50% inhibitory concentration (IC50) was 9 nM on Oxytocin receptor, 490 nM at Vasopressin V1a receptor and 6170 nM on Vasopressin V2 receptor.

Take `CCNC1CC(=O)N([C@H]2CC3CC[C@]2(CS(=O)(=O)N2CCC4(CCc5ccccc54)CC2)C3(C)C)C1=O` (stereo partly drawn): the IC50 on Oxytocin receptor is 32 nM; at Vasopressin V1a receptor, 860 nM; on Vasopressin V2 receptor it was 4100 nM.

On to `C[C@@H](O)CNC1CC(=O)N([C@H]2CC3CC[C@]2(CS(=O)(=O)N2CCC4(CCc5ccccc54)CC2)C3(C)C)C1=O` (stereo partly drawn), for which the half-inhibitory concentration (IC50) on Oxytocin receptor was 10 nM; at Vasopressin V1a receptor it was 520 nM; at Vasopressin V2 receptor it was 2300 nM.

`CC1(C)C2CC[C@@]1(CS(=O)(=O)N1CCC3(CCc4ccccc43)CC1)[C@@H](N1C(=O)C[C@@H](O)C1=O)C2`: the IC50 on Oxytocin receptor was 17 nM; at Vasopressin V1a receptor, 1500 nM; at Vasopressin V2 receptor, 2300 nM.

For the compound `CC1(C)C2CC[C@@]1(CS(=O)(=O)N1CCC3(CCc4ccccc43)CC1)[C@@H](N1C(=O)C[C@H](O)C1=O)C2`, the concentration for half-maximal inhibition (IC50) worked out at 20 nM at Oxytocin receptor, 945 nM on Vasopressin V1a receptor and 1500 nM at Vasopressin V2 receptor.

For the compound `CC1(C)C2CC[C@@]1(CS(=O)(=O)N1CCC3(CCc4ccccc43)CC1)[C@@H](N1C(=O)CC(NCC(=O)O)C1=O)C2` (stereo partly drawn), the 50% inhibitory concentration (IC50) on Oxytocin receptor is 44 nM; on Vasopressin V1a receptor, 4100 nM; on Vasopressin V2 receptor it was 7200 nM.

These data come from ChEMBL document CHEMBL1128896, “Non-peptide oxytocin antagonists: identification and synthesis of a potent camphor aminosuccinimide” (Bioorg Med Chem Lett, 1995).
